Reference: the supplement of paper PMC10307832

Each cell line was assayed with C[C@@H](Oc1cc(-c2cnn(C3CCNCC3)c2)cnc1N)c1c(Cl)ccc(F)c1Cl [Crizotinib] (assay: relative viability (nuclei count vs DMSO), 5 days (fraction); higher = more cells survive). Settings: 0.1 µM.
In short: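 Viability was read as treated-well nuclei divided by vehicle-well nuclei, using the median across plates. Lung cancer cell lines in 1536-well plates were kept overnight at 37 °C, pinned with five √10-spaced library-drug doses, and after 5 days were Hoechst-stained, imaged at 4× and counted in MetaXpress. Plates passed only with control CV below 25% and at least one doubling.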
SK-LU-1 was tested, and the relative viability was 1.02.
For SK-MES-1, the relative viability was 1.02.
SW 900 showed a relative viability of 0.93.
Work on SW 1573 yielded a relative viability of 0.917.
UMC-11 gave a relative viability of 0.91.

Same assay, conditions: 0.3162 µM
NCI-H727 gave a relative viability of 0.779.
In the case of NCI-H838, the relative viability is reported as 0.888.
Work on NCI-H1355 yielded a relative viability of 0.797.
Work on NCI-H1395 yielded a relative viability of 0.811.
NCI-H1437 showed a relative viability of 0.884.
NCI-H1648 gave a relative viability of 0.958.
NCI-H1650 was tested, and the relative viability was 0.891.
NCI-H1651 showed a relative viability of 0.991.
For NCI-H1666, the relative viability was 0.971.
Work on NCI-H1755 yielded a relative viability of 0.944.
For NCI-H1944, the relative viability was 1.02.
Cell Line NCI-H1975 has a relative viability of 0.921.
NCI-H1993 gave a relative viability of 0.798.
Work on NCI-H2009 yielded a relative viability of 0.986.
Cell Line NCI-H2023 has a relative viability of 0.761.
With NCI-H2085 the relative viability was 1.
NCI-H2087 showed a relative viability of 0.788.
Work on NCI-H2126 yielded a relative viability of 0.914.
NCI-H2170 gave a relative viability of 0.928.
In the case of NCI-H2228, the relative viability is reported as 0.679.
For NCI-H2342, the relative viability was 0.867.
With NCI-H2347 the relative viability was 0.973.
NCI-H2405 showed a relative viability of 0.949.
Cell Line NCI-H3122 has a relative viability of 0.864.
PC-3 [JPC-3] gave a relative viability of 0.992.
For PC-14, the relative viability was 0.963.
RERF-LC-KJ showed a relative viability of 0.927.
Work on SK-LU-1 yielded a relative viability of 1.05.
Cell Line SK-MES-1 has a relative viability of 0.97.
Cell Line SW 900 has a relative viability of 0.787.
With SW 1573 the relative viability was 0.885.
UMC-11 showed a relative viability of 0.636.

Same assay, conditions: 1 µM
NCI-H727 gave a relative viability of 1.17.
NCI-H838 showed a relative viability of 0.928.
NCI-H1355 was tested, and the relative viability was 0.981.
Work on NCI-H1395 yielded a relative viability of 0.739.
NCI-H1437 was tested, and the relative viability was 1.08.
With NCI-H1648 the relative viability was 1.1.
NCI-H1650 showed a relative viability of 0.931.
Work on NCI-H1651 yielded a relative viability of 1.08.
NCI-H1666 showed a relative viability of 0.987.
NCI-H1734 was tested, and the relative viability was 0.955.
Work on NCI-H1755 yielded a relative viability of 1.
NCI-H1792 showed a relative viability of 0.909.
With NCI-H1915 the relative viability was 1.02.
NCI-H1944 gave a relative viability of 0.893.
With NCI-H1975 the relative viability was 1.02.
In the case of NCI-H1993, the relative viability is reported as 0.753.
NCI-H2009 gave a relative viability of 1.
For NCI-H2023, the relative viability was 0.734.
Work on NCI-H2085 yielded a relative viability of 0.975.
NCI-H2087 gave a relative viability of 1.03.
NCI-H2126 gave a relative viability of 0.993.
For NCI-H2170, the relative viability was 1.01.
NCI-H2228 gave a relative viability of 0.585.
With NCI-H2342 the relative viability was 0.882.
With NCI-H2347 the relative viability was 1.06.
Cell Line NCI-H2405 has a relative viability of 0.973.
NCI-H3122 gave a relative viability of 0.798.
PC-3 [JPC-3] was tested, and the relative viability was 0.961.
For PC-14, the relative viability was 0.986.
Work on RERF-LC-KJ yielded a relative viability of 1.05.
With SK-LU-1 the relative viability was 1.08.
SK-MES-1 gave a relative viability of 0.967.
Work on SW 900 yielded a relative viability of 0.952.
Cell Line SW 1573 has a relative viability of 0.974.
In the case of UMC-11, the relative viability is reported as 1.01.

Same assay, conditions: 1 µM; anchor plate
For NCI-H727, the relative viability was 0.868.
NCI-H838 showed a relative viability of 0.852.
For NCI-H1355, the relative viability was 1.05.
In the case of NCI-H1650, the relative viability is reported as 1.02.
Work on NCI-H1651 yielded a relative viability of 0.884.
In the case of NCI-H1666, the relative viability is reported as 1.04.
NCI-H1734 was tested, and the relative viability was 0.672.
Cell Line NCI-H1755 has a relative viability of 0.863.
Cell Line NCI-H1792 has a relative viability of 0.997.
NCI-H1915 showed a relative viability of 0.908.
Cell Line NCI-H1944 has a relative viability of 1.1.
NCI-H1975 showed a relative viability of 0.979.
With NCI-H1993 the relative viability was 0.872.
NCI-H2009 showed a relative viability of 1.04.
Work on NCI-H2023 yielded a relative viability of 0.676.
NCI-H2085 gave a relative viability of 0.882.
Cell Line NCI-H2087 has a relative viability of 0.811.
NCI-H2170 showed a relative viability of 1.2.
NCI-H2228 showed a relative viability of 0.482.
NCI-H2347 showed a relative viability of 0.73.
NCI-H2405 gave a relative viability of 0.789.
NCI-H3122 showed a relative viability of 0.275.
For PC-3 [JPC-3], the relative viability was 0.97.
In the case of RERF-LC-KJ, the relative viability is reported as 0.819.
For SK-LU-1, the relative viability was 0.852.
In the case of SK-MES-1, the relative viability is reported as 0.991.
In the case of SW 1573, the relative viability is reported as 0.793.
With UMC-11 the relative viability was 0.606.

The cell lines below were run with C[C@@H](Oc1cc(-c2cnn(C3CCNCC3)c2)cnc1N)c1c(Cl)ccc(F)c1Cl [Crizotinib] + CC(=O)Nc1cccc(-n2c(=O)n(C3CC3)c(=O)c3c(Nc4ccc(I)cc4F)n(C)c(=O)c(C)c32)c1 [Trametinib] (partner 0.02 µM) (assay: relative viability (nuclei count vs DMSO), 5 days (fraction); higher = more cells survive). Settings: first compound 0.01 µM.
In short: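 A single step with final 0.05% Triton X-100, 1% formaldehyde and 1 ug/ml Hoechst fixed the cells and stained nuclei 5 days after treatment. Lung cancer cell lines in 1536-well plates had been treated by pin tool the day after seeding with one drug alone or a fixed anchor-drug dose plus five library-drug doses (not always all listed) in √10 steps, and nuclei were counted on 4× images. Relative viability is the ratio of nuclei in treated wells to nuclei in vehicle wells, taken as the median of duplicate plates.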
With NCI-H727 the relative viability was 0.356.
In the case of NCI-H838, the relative viability is reported as 0.474.
For NCI-H1355, the relative viability was 0.416.
Cell Line NCI-H1395 has a relative viability of 0.951.
With NCI-H1437 the relative viability was 0.542.
For NCI-H1650, the relative viability was 0.548.
NCI-H1651 was tested, and the relative viability was 0.802.
For NCI-H1666, the relative viability was 0.838.
NCI-H1734 was tested, and the relative viability was 0.684.
NCI-H1755 was tested, and the relative viability was 0.776.
In the case of NCI-H1792, the relative viability is reported as 0.492.
With NCI-H1915 the relative viability was 0.286.
NCI-H1944 gave a relative viability of 0.408.
NCI-H1975 showed a relative viability of 0.338.
Cell Line NCI-H1993 has a relative viability of 0.631.
Cell Line NCI-H2009 has a relative viability of 0.268.
Cell Line NCI-H2023 has a relative viability of 0.487.
NCI-H2085 gave a relative viability of 0.515.
With NCI-H2087 the relative viability was 0.145.
In the case of NCI-H2126, the relative viability is reported as 0.511.
Cell Line NCI-H2170 has a relative viability of 0.859.
NCI-H2228 was tested, and the relative viability was 0.415.
Cell Line NCI-H2342 has a relative viability of 0.818.
NCI-H2347 was tested, and the relative viability was 0.265.
NCI-H2405 was tested, and the relative viability was 0.537.
NCI-H3122 was tested, and the relative viability was 0.207.
With PC-3 [JPC-3] the relative viability was 0.634.
In the case of PC-14, the relative viability is reported as 0.842.
Work on RERF-LC-KJ yielded a relative viability of 0.955.
SK-LU-1 showed a relative viability of 0.455.
With SK-MES-1 the relative viability was 0.511.
Work on SW 900 yielded a relative viability of 0.907.
In the case of SW 1573, the relative viability is reported as 0.531.
Work on UMC-11 yielded a relative viability of 0.7.

Same assay, conditions: first compound 0.03162 µM
In the case of NCI-H727, the relative viability is reported as 0.427.
